Experimental data taken from publication PMC9763054 (Nature, 2021).

Molecular target: human CB1 (Homo sapiens, UniProt P21554)
Assay type: cell-based

Chain of human CB1 (P21554 whole entry): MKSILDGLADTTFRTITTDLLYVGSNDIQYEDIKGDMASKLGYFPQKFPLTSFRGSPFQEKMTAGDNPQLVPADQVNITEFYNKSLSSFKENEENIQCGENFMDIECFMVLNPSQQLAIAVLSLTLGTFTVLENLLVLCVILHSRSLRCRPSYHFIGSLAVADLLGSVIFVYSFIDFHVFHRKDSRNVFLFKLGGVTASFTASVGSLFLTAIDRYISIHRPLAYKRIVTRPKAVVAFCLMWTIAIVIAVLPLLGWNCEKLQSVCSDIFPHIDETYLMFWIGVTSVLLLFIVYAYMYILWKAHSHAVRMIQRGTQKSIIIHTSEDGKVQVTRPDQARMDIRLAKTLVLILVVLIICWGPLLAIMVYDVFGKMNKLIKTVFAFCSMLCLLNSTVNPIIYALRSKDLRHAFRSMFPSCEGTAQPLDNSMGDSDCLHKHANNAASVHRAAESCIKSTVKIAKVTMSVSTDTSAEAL

CCCCCCC(C)(C)c1ccc([C@@H]2C[C@H](O)CC[C@H]2CCCO)c(O)c1 [CP55940]
CB1 potency measured in agonist mode: 17 nM
